Measured values published in US8101666B2, “Methods and compounds for detection of medical disorders” (Aposense Ltd., priority 2004, dated 2012).

What was measured:
[1] = test system: degenerating neuronal cells; test: Selective binding of NST729 in vivo to degenerating neuronal cells in a mouse model of motor neuron disease (SOD G93A); details: SOD G93A transgenic mice, 1.4 mg/animal i.v., 2 h
Experimental: Studies were carried out in transgenic mice for SOD with point mutation of G93A. NST729 (1.4 mg / animal in 200 μl 50% Cremophor/ trizma-base 0.1M was injected i.v. After two hours, mice were anesthetized and brain +spinal cord were removed into liquid nitrogen for further analysis. Frozen sections of 10 μm thickness were prepared. The slices were visualized by fluorescent microscopy.

amyloid plaques = test: Detection of amyloid plaques in APP Swedish TG2576 mice, fluorescent microscopy of brain sections; assay type: in vivo; details: i.v., 2 h
Experimental: Studies were carried out in one and a half year old APP Swedish TG2576 mice, which have a mutation of APP. BDA (which lacks a free thiol residue) and NST729 were injected i.v., two hours later, mice were anesthetized and brains were removed into liquid nitrogen for further analysis. Frozen section of 10 μm thickness each were prepared, and visualized by fluorescent microscopy.

[2] = test system: brain cells undergoing apoptosis following middle cerebral artery (MCA) cauterization; test: Selective binding of NST729 to cells undergoing cell death following MCA occlusion, fluorescent microscopy of brain sections; assay type: in vivo; details: Balb/C mice
Experimental: Studies were carried out in adult male Balb/C mice, weighing 20-25 g. Ischemia was induced by unilateral cauterization of the middle cerebral artery. Briefly, mice were anesthetized, and ischemia was induced through a subtemporal approach. The craniotomy was performed at the level where the MCA crossed the lateral olfactory tract. […] All visible branches also were occluded to prevent blood supply by passing. The incision sites were clipped closed and the animal was injected with analgesics and allowed to recover.

[3] = test system: apoptotic cells in tumor, murine melanoma-derived B16-F10 cells; test: Targeting of DC in vivo to apoptotic cells in B16-F10 murine melanoma tumor, fluorescent microscopy; design: species or system mice; details: 2 mg/mouse i.v., 2 h; for uptake by the apoptotic or the viable tumor cells: data not shown
Experimental: Tumors, and especially aggressive malignancies such as melanoma are characterized, in addition to the abnormal tissue proliferation, also by marked apoptosis of tumor cells. The performance of DC in selective targeting of these apoptotic cells within the tumor was therefore examined. Mice (c57/black; 8 weeks old male mice) were injected subcutaneously bilaterally, in the flank, with murine melanoma-derived B16-F10 cells (ATCC CRL-6475; 10^5 cells/mice in a volume of 100 μl). Prior to injection, the cell line was maintained in culture in Dulbecco's modified Eagle's medium (DMEM), supplemented with 4 mM of L-glutamine; 100 units/ml of penicillin; 100 μg/ml of streptomycin; 12.5 units/ml of nystatin and 10% of fetal calf serum (FCS). Tumors were allowed to grow for 14 days, by which they reached a diameter of 5-7 mm.
Dansyl-cysteine (DC), or the control compounds dansyl-glycine or dansyl-serine (2 mg/mouse each in NaPpi buffer, pH. 7.40) was injected intravenously. Two hours later, mice were scarified and the tumors, as well as other organs were taken, and immediately frozen in liquid nitrogen. Frozen sections were then prepared from each of the organs. Uptake of the examined compounds by the tumors or other organs was assessed by fluorescent microscopy.

[4] = test system: cells undergoing apoptosis, induced by cerebral ischemia due to middle cerebral artery (MCA) occlusion; test: Selective targeting of NST739 to cells undergoing cell death following MCA occlusion, fluorescent microscopy of brain sections; assay type: in vivo; details: Balb/C mice
Experimental: An in vivo experiment was conducted in mice, in order to show the performance of NST739 in selective binding to cells undergoing apoptosis, induced by cerebral ischemia due to middle cerebral artery (MCA) occlusion.
Studies were carried out in adult male Balb/C mice, weighing 20-25 g. Cerebral ischemia was induced by unilateral cauterization of the middle cerebral artery. Briefly, mice were anesthetized, and ischemia was induced through a subtemporal approach. The craniotomy was performed at the level where the MCA crossed the lateral olfactory tract. […] All visible branches also where occluded to prevent blood supply by passing. The incision sites were clipped closed and the animal was injected with analgesics and allowed to recover. Twenty-two hours after the middle cerebral artery (MCA) cauterization, NST739 or the control compound BDA (1.4 mg/animal each) were injected i.v. At 24 h from the induction of the injury, and two hours after administration of NST739, mice were anesthetized, sacrificed, and brains were removed into liquid nitrogen for further analysis. […] Frozen sections were prepared. The slices were visualized by fluorescent microscopy.

Structure (SMILES): CN(C)c1cccc2c(S(=O)(=O)NCCS)cccc12 [NST729, n-(2-mercaptoethyl)-dansylamide]
- uptake by degenerating neuronal cells and axons (motor nuclei of the pons) [1]: marked uptake
- uptake by other cells in the same region and cells in other brain regions [1]: did not manifest such uptake
- staining of surrounding brain cells (amyloid plaques; APP Swedish TG2576 mice): remained unstained
- intensity of binding to the plaques compared with BDA (fluorescence intensity) (amyloid plaques; APP Swedish TG2576 mice, versus control BDA): markedly higher
- visualization of amyloid plaques (amyloid plaques; one and a half year old APP Swedish TG2576 mice): strongly visualized
- binding to cells in the damaged area ([2]; 1.4 mg i.v. 22 h after MCA cauterization, brains removed 2 h later): extensive binding
- number of apoptotic events detected compared with BDA ([2]; MCA cauterization, i.v., 2 h, versus control BDA): significantly higher
- level of binding (fluorescence intensity) compared with BDA ([2]; MCA cauterization, i.v., 2 h, versus control BDA lacking the thiol group): markedly higher

Structure (SMILES): CN(C)c1cccc2c(S(=O)(=O)NCC(=O)O)cccc12 [dansyl-glycine, reference compound]
- uptake by the apoptotic or the viable tumor cells ([3]; B16-F10 tumors): did not manifest a significant uptake

Structure (SMILES): CN(C)c1cccc2c(S(=O)(=O)N(CCS)CCCF)cccc12 [NST739, N-(3-fluoropropyl)-N-(2-thioethyl)-dansylamide]
- binding to cells in the damaged area ([4]; 1.4 mg/animal i.v. 22 h after MCA cauterization, brains removed 2 h later): extensive binding
- staining of cells in other brain regions ([4]; MCA cauterization, 1.4 mg/animal i.v., 2 h): remained unstained
- level of binding (fluorescence) compared with BDA ([4]; MCA cauterization, 1.4 mg/animal i.v., 2 h, versus control BDA lacking the thiol group): significantly higher

Structure (SMILES): CN(C)c1cccc2c(S(=O)(=O)N[C@@H](CS)C(=O)O)cccc12 [DC, dansyl-cysteine]
- binding to tumor cells undergoing cell death ([3]; c57/black mice, B16-F10 tumors): Extensive binding
- staining of viable tumor cells ([3]; c57/black mice, B16-F10 tumors): remain unstained
- binding to normal, viable small intestine tissue ([3]; same animal): lack of binding

Structure (SMILES): CN(C)c1cccc2c(S(=O)(=O)N[C@@H](CO)C(=O)O)cccc12 [dansyl-serine, reference compound]
- uptake by the apoptotic or the viable tumor cells ([3]; B16-F10 tumors): did not manifest a significant uptake
